≈ marks a conversion by molar mass, not a printed value. Where “and” joins values, the source holds several entries; their conditions need not be identical. Equal entries are not always repeated.
How the values were obtained:
[1] = DNDI: Cytotoxicity against L929 mouse fibroblasts, 72 hour.; format: toxicity, cell-based; conditions: mouse, L929 mouse fibroblasts
Trypanosoma brucei [2] = test: DNDI: Inhibition of Human African Trypanosomiasis, SBRI 427, in vitro; format: functional, organism-based
[3] = DNDI: Lipophilicity measured in Chromatographic hydrophobicity index (CHI) assay, pH 7.4; format: physicochemical; conditions: buffer
MDR1 (ABCB1) [4] = target: T1, MDR1 (ABCB1) (Homo sapiens, UniProt P08183); test: DNDI: % of compound recovered from apical to basolateral permeability assay in MDCK cells transfected with human MDR1 after 60 mins at a concentration of 3uM; format: ADME, cell-based, Canis lupus familiaris; conditions: dog
MDR1 (ABCB1) [5] = target: T1, MDR1 (ABCB1); test: DNDI: Apparent permeability from apical to basolateral side of the MDCK cell transfected with human MDR1after 60 mins at a concentration of 3uM; format: ADME, cell-based, Canis lupus familiaris; conditions: dog, MDCK-MDR1
MDR1 (ABCB1) [6] = target: T1, MDR1 (ABCB1); test: DNDI: % of compound recovered from apical to basolateral permeability assay in MDCK cells transfected with human MDR1 after 60 mins at a concentration of 3uM in the presence of GF120918; format: ADME, cell-based, Canis lupus familiaris; conditions: dog, MDCK-MDR1, with GF120918 (concentration not stated)
MDR1 (ABCB1) [7] = target: T1, MDR1 (ABCB1); test: DNDI: Efflux ratio for permeability from basolateral to apical side to apical to basolateral side of MDCK cells transfected with human MDR1; format: ADME, cell-based, Canis lupus familiaris; conditions: dog, MDCK-MDR1; read-out: Calculated Ratio
[8] = DNDI: Solubility in phosphate buffered saline at pH7.4 measured by nephelometry at room temperature (NEPH-RT); format: physicochemical; conditions: pH 7.4
Trypanosoma brucei [9] = test: (§1) DNDI: Mean survival time in days (MSD) of mice after intraperitoneal injection of Human African Trypanosomiasis (HAT), EATRO 110, in vivo at 20 mg/kg/day for 4 days.; format: functional, Mus musculus
Trypanosoma brucei [10] = test: as §1; format: functional, Mus musculus; remark: listed apart in the source
[11] = DNDI: % of compound remaining in mouse S9 microsomes at a concentration of 1uM after 60 mins; format: ADME, subcellular, Liver, S9 fraction
[12] = DNDI: % of compound remaining in rat S9 microsomes at a concentration of 1uM; format: ADME, subcellular, Liver, S9 fraction
[13] = mouse, microsomes, 1 µM
Description: (§2) DNDI: in vitro intrinsic clearance in mouse liver microsomes at a concentration of 1uM

in vitro [14] = conditions: mouse, t (1 / 2)
Description: (§3) DNDI: half life in mouse liver microsomes at a concentration of 1uM

Trypanosoma cruzi = test: DNDI: Inhibition of Chagas Disease parasite Trypanosoma cruzi (Tulahuen LacZ, Clone C4), in vitro.; format: functional, organism-based
[15] = DNDI: Cytotoxicity against L929 mouse fibroblasts, CYTO-SP, 24 hour; format: toxicity, cell-based; conditions: mouse, L929 mouse fibroblasts
[16] = DNDI: Cytotoxicity against L-6 rat myoblasts from skeletal muscle cells; format: toxicity, cell-based, L6; conditions: L-6 rat skeletal muscle myoblasts
Trypanosoma brucei [17] = test: DNDI: Inhibition of Human African Trypanosomiasis, Cross 22, in vitro; format: functional, organism-based
[18] = system: Trypanosoma brucei rhodesiense; test: DNDI: Inhibition of Human African Trypanosomiasis (HAT), STIB 900, in vitro; format: functional, organism-based
Leishmania donovani = test: DNDI: Inhibition of formation of Leishmania donovani (strain MHOM/ET/67/L82) axenic amastigotes, in vitro.; format: functional, organism-based
Plasmodium falciparum = test: DNDI: Inhibition of the malaria parasite Plasmodium falciparum, in vitro; format: functional, organism-based; conditions: K1
[19] = DNDI: half life in human liver microsomes at a concentration of 10uM; format: ADME, Microsome
[20] = DNDI: in vitro intrinsic clearance in human liver microsomes at a concentration of 10uM; format: ADME, Microsome
[21] = DNDI: in vitro intrinsic clearance in mouse liver microsomes at a concentration of 10uM; format: ADME, Microsome; conditions: read-out: CLint in vitro
[22] = DNDI: half life in mouse liver microsomes at a concentration of 10uM; format: ADME, Microsome
[23] = DNDI: Solubility in phosphate buffered saline at pH7.4 measured by optical density (turbidimetry) at room temperature (OD-RT); format: physicochemical; conditions: pH 7.4
[24] = mouse, microsomes, 1 µM; remark: listed apart in the source
Description: as §3

in vitro [25] = conditions: mouse
Description: as §2

in vitro [26] = conditions: human, liver microsomes, t (1 / 2)
Description: DNDI: half life in human liver microsomes at a concentration of 1uM

in vitro [27] = conditions: human, liver microsomes, CLint in vitro
Description: DNDI: in vitro intrinsic clearance in human liver microsomes at a concentration of 1uM

[28] = DNDI: half-life in mouse S9 microsomes at a concentration of 1uM; format: ADME, subcellular, Liver, S9 fraction
Trypanosoma brucei [29] = test: DNDI: Inhibition of Human African Trypanosomiasis, EATRO 110, in vitro; format: functional, organism-based
[30] = Trypanosoma brucei, SBRI 427, read-out: IC50

T1 sequence (P08183 whole entry): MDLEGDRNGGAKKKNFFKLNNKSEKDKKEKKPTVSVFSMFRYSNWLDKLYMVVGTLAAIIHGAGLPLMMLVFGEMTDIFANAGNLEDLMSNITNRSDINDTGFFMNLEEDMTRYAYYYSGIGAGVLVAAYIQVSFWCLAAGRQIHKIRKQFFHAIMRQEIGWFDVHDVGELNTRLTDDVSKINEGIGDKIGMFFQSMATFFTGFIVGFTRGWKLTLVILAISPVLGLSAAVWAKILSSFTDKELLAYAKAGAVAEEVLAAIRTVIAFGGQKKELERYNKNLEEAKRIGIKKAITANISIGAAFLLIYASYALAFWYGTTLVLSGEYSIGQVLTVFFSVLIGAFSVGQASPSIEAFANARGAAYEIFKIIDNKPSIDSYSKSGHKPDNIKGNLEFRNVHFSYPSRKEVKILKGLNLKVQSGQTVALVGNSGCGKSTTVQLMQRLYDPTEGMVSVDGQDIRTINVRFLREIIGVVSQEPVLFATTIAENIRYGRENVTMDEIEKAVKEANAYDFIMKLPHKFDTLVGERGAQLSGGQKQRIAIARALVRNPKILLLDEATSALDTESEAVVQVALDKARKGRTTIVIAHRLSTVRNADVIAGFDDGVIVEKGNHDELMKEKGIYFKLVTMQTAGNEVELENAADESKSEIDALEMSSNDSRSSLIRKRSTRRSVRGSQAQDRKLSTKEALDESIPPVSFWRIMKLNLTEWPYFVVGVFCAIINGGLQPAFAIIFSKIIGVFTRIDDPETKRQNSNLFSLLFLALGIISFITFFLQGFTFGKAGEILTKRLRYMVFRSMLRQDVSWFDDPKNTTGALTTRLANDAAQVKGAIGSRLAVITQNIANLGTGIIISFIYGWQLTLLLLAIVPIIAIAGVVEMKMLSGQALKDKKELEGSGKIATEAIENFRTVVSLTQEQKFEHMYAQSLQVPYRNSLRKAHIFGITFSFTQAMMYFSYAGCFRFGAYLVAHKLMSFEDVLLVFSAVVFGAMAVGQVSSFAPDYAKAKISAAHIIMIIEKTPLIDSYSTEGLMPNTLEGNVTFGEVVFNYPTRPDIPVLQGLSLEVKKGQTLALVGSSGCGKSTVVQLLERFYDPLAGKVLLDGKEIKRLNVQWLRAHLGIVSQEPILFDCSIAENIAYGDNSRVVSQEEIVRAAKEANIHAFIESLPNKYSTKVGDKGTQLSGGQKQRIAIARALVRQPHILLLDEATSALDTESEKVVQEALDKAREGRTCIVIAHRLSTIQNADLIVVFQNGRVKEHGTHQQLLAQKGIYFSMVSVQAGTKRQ

SMILES | IC50 at 72 h [1] [µg/mL] | IC50 (Trypanosoma brucei [2]; [30]) [µg/mL] | chromatographic logD [3] | recovery at 1 h, 3 µM (MDR1 (ABCB1) [4]) [%] | Papp A→B at 1 h, 3 µM (MDR1 (ABCB1) [5]) [×10⁻⁶ cm/s] | recovery at 1 h, 3 µM (MDR1 (ABCB1) [6]) [%] | solubility kinetic [8] [µM] | MSD (Trypanosoma brucei [9]) [days] | remaining at 1 h, 1 µM [11] [%] | remaining at 1 µM [12] [%] | CLint in vitro [13] | half-life at 1 µM (in vitro [14]; liver microsomes) [h] | IC50 at 24 h [15] [µg/mL] | t (1 / 2) [24] | further results
Cc1cc(NCCCn2ccnc2)n2nc(-c3cccc(F)c3)cc2n1 | > 10 | > 5 | 3.67 | 100 | 30.4 | 109 | 25 (≈ 8.76 µg/mL) | – | – | – | – | – | – | – | efflux ratio (MDR1 (ABCB1) [7]): 0.43
COc1ccc(/C(=N/O)Nc2cccc(C(F)(F)F)c2)cc1 | 8.11 (≈ 26.1 µM) | – | 3.67 | – | – | – | 25 (≈ 7.76 µg/mL) | 5 | 0 | 0 | 319 µL/min/mg | 0.05 | – | – | MSD (Trypanosoma brucei [10]): 5 days
CCCCc1ccc(-c2nc(CNCc3c(OC)cccc3OC)co2)cc1 | 1.62 (≈ 4.26 µM) | 0.32 (≈ 0.841 µM) | > 5.2 | – | – | – | 6 (≈ 2.28 µg/mL) | 4.5 | 18.7 | 0.169 | 65 µL/min/mg | 0.217 | – | – | –
CCCCCC(C)NCc1coc(-c2ccc(CCCC)cc2)n1 (configuration not stated) | 1.48 (≈ 4.51 µM) | – | 5.51 | – | – | – | – | 3.4 | – | – | 11 µL/min/mg | – | > 50 | 81 min | IC50 (Trypanosoma cruzi): 2.8 µg/mL (≈ 8.52 µM); IC50 [16]: 2.31 µg/mL (≈ 7.03 µM); IC50 (Trypanosoma brucei [17]): 0.3 µg/mL (≈ 0.913 µM); IC50 [18]: 0.186 µg/mL (≈ 0.566 µM); IC50 (Leishmania donovani): 5.25 µg/mL (≈ 16 µM); IC50 (Plasmodium falciparum): 0.647 µg/mL (≈ 1.97 µM); half-life at 10 µM [19]: 1.62 h; CLint in vitro [20]: 30 µL/min/mg; microsomal CLint at 10 µM [21]: 16 µL/min/mg; half-life at 10 µM [22]: 2.98 h; solubility kinetic [23]: 1.6 µM (≈ 0.526 µg/mL); microsomal CLint at 1 µM (in vitro [25]; microsomes): 12 µL/min/mg; half-life at 1 µM (in vitro [14]; microsomes): 1.22 h
CCCCOc1ccc(-c2nc(CNC3CCCCCC3)co2)cc1 | < 3.13 | 0.38 (≈ 1.11 µM) | 5.34 | – | – | – | < 1 | – | – | – | 32 µL/min/mg and 11 µL/min/mg | – | 11.7 (≈ 34.2 µM) | 26 min and 78 min | IC50 (Trypanosoma brucei [17]): 0.4 µg/mL (≈ 1.17 µM); IC50 (Trypanosoma brucei [2]): 0.3 µg/mL and 0.39 µg/mL; half-life at 1 µM (in vitro [26]): 0.383 h; microsomal CLint at 1 µM (in vitro [27]): 38 µL/min/mg
Fc1cccc(-c2cc3nc(-c4ccccc4)cc(NCCCN4CCOCC4)n3n2)c1 | > 10 | 5 (≈ 11.6 µM) | > 5.2 | 59 | 3.26 | 51 | 3 (≈ 1.29 µg/mL) | – | – | – | – | – | – | – | half-life at 1 µM [28]: 4.27 h; efflux ratio (MDR1 (ABCB1) [7]): 0.05
COc1cc(C)ccc1Oc1ncccc1/C(=N/O)NC1CCCCC1 | > 10 | 0.25 (≈ 0.703 µM) | 4 | – | – | – | 25 (≈ 8.89 µg/mL) | 5.5 | 18.3 | 0.111 | 76 µL/min/mg | 0.183 | > 50 | – | IC50 (Trypanosoma cruzi): > 30 µg/mL; IC50 [16]: 76.2 µg/mL (≈ 214 µM); IC50 (Trypanosoma brucei [29]): 0.48 µg/mL (≈ 1.35 µM); IC50 (Trypanosoma brucei [2]): 0.15 µg/mL (≈ 0.422 µM); IC50 [18]: 57.9 µg/mL (≈ 163 µM); IC50 (Leishmania donovani): > 90 µg/mL; logD [3]: 4.04; IC50 (Plasmodium falciparum): > 5 µg/mL; half-life at 10 µM [19]: 2.57 h; CLint in vitro [20]: 19 µL/min/mg; microsomal CLint at 10 µM [21]: 76 µL/min/mg; half-life at 10 µM [22]: 0.633 h; solubility kinetic [23]: 25 µM (≈ 8.89 µg/mL)
CN(C)CCNc1cc(-c2ccccc2)nc2cc(-c3ccc(F)cc3)nn12 | > 10 | 1.53 (≈ 4.08 µM) | 5.2 | 100 | 8.84 | 70 | 25 (≈ 9.39 µg/mL) | – | – | – | – | – | – | – | half-life at 1 µM [28]: > 5.83 h
O/N=C(\Nc1ccccc1)c1ccccc1-c1ccccc1 | – | 4.39 (≈ 15.2 µM) | 4.32 | – | – | – | 25 (≈ 7.21 µg/mL) | 4 | – | – | 352 µL/min/mg | 0.05 | 36.9 (≈ 128 µM) | 2 min | half-life at 1 µM (in vitro [26]): 1.87 h; microsomal CLint at 1 µM (in vitro [27]): 8 µL/min/mg; microsomal CLint at 1 µM (in vitro [25]; liver microsomes): 338 µL/min/mg

Source: ChEMBL document CHEMBL1857833, “Screening and optimization of specific chemical series against human African Trypanosomiasis (HAT)”
